How the values were obtained:
[1] = tested on: Human immunodeficiency virus 1; test: Anti-HIV activity was determined in MT-4 cells in the presence of 50% human serum using cytopathic effect assay; type: functional, organism-based; settings: Human immunodeficiency virus 1, MT4, Serum
[2] = target: Human immunodeficiency virus type 1 protease (Human immunodeficiency virus 1) (UniProt Q72874); test: Inhibition of HIV protease at 0.5 nM
[3] = tested on: MT4; test: Cytotoxicity against MT-4 cells was determined by using cytopathic effect assay; type: functional, Homo sapiens
[4] = tested on: Human immunodeficiency virus 1; test: Anti-HIV activity was determined in MT-4 cells in the presence of 0% human serum using cytopathic effect assay; type: functional, organism-based; settings: Human immunodeficiency virus 1, MT4
[5] = target: Cytochrome P450 3A4 (Homo sapiens, UniProt P08684); test: […] inhibition of human liver microsomal Cytochrome P450 3A4; type: ADME
[6] = target: Human immunodeficiency virus type 1 protease (Human immunodeficiency virus 1) (UniProt Q72874); test: Compound was tested for the inhibition of HIV protease at 97 nM
[7] = tested on: MT4; test: Cytotoxicity against MT-4 cells was determined by using cytopathic effect assay; NA means not active; type: functional, cell-based, Homo sapiens
[8] = tested on: MT4; test: Anti-HIV activity was determined in MT-4 cells in the presence of 50% human serum using cytopathic effect assay; NA means not active; type: functional, cell-based
[9] = tested on: MT4; test: Anti-HIV activity was determined in MT-4 cells in the presence of 0% human serum using cytopathic effect assay; Not active; type: functional, cell-based
[10] = target: Human immunodeficiency virus type 1 protease (Human immunodeficiency virus 1) (UniProt Q72874); test: Compound was tested for the inhibition of HIV protease at 27 nM
[11] = tested on: Human immunodeficiency virus 1; test: Antiviral activity was assessed against I54I/V, A71V, V82A, L90L/M viral strains isolated from patient-235 pretreated with ritonavir (2 fold) at 36th week; type: functional, organism-based
[12] = tested on: Human immunodeficiency virus 1; test: Antiviral activity was assessed against K20K/R, M36M/I, 154V/I, L63L/P, V82/A viral strains isolated from patient-131 pretreated with ritonavir(7 fold) at 28th week; type: functional, organism-based
[13] = tested on: Human immunodeficiency virus 1; test: Antiviral activity was assessed against K20K/R, 36M/I, 154V, A71A/V, V82T viral strains isolated from patient-129 pretreated with ritonavir(7 fold) at 16th week; type: functional, organism-based
[14] = tested on: Human immunodeficiency virus 1; test: Antiviral activity was assessed against M36M/I, V82F viral strains isolated from patient-313 pretreated with ritonavir(3 fold) at 57th day; type: functional, organism-based
[15] = tested on: Human immunodeficiency virus 1; test: Antiviral activity was assessed against M36I, I54V, A71V, V82T viral strains isolated from patient-129 pretreated with ritonavir(2 fold) at 8th week; type: functional, organism-based
[16] = tested on: Human immunodeficiency virus 1; test: Antiviral activity was assessed against M36M/I, I54I/V, V82F/A/S/T viral strains isolated from patient-313 pretreated with ritonavir(3 fold) at 85th day; type: functional, organism-based
[17] = target: Human immunodeficiency virus type 1 protease (Human immunodeficiency virus 1) (UniProt Q72874); test: Compound was tested for the inhibition of HIV protease at 120 nM
[18] = tested on: Human immunodeficiency virus 1; test: Antiviral activity was assessed against I54I/V, A71V, V82A, L90L/M viral strains isolated from patient-235 pretreated with ritonavir (4 fold) at 36th week; type: functional, organism-based
[19] = tested on: Human immunodeficiency virus 1; test: Antiviral activity was assessed against M36M/I, V82F viral strains isolated from patient-313 pretreated with ritonavir(9 fold) at 57th day; type: functional, organism-based
[20] = tested on: Human immunodeficiency virus 1; test: Antiviral activity was assessed against M36M/I, I54I/V, V82F/A/S/T viral strains isolated from patient-313 pretreated with ritonavir(14 fold) at 85th day; type: functional, organism-based
[21] = tested on: Human immunodeficiency virus 1; test: Antiviral activity was assessed against M36I, I54V, A71V, V82T viral strains isolated from patient-129 pretreated with ritonavir(14 fold) at 8th week; type: functional, organism-based
[22] = tested on: Human immunodeficiency virus 1; test: Antiviral activity was assessed against K20K/R, 36M/I, 154V, A71A/V, V82T viral strains isolated from patient-129 pretreated with ritonavir(33 fold) at 16th week; type: functional, organism-based
[23] = tested on: Human immunodeficiency virus 1; test: Antiviral activity was assessed against K20K/R, M36M/I, 154V/I, L63L/P, V82/A viral strains isolated from patient-131 pretreated with ritonavir(20 fold) at 28th week; type: functional, organism-based

Chain of Cytochrome P450 3A4 (P08684 whole entry): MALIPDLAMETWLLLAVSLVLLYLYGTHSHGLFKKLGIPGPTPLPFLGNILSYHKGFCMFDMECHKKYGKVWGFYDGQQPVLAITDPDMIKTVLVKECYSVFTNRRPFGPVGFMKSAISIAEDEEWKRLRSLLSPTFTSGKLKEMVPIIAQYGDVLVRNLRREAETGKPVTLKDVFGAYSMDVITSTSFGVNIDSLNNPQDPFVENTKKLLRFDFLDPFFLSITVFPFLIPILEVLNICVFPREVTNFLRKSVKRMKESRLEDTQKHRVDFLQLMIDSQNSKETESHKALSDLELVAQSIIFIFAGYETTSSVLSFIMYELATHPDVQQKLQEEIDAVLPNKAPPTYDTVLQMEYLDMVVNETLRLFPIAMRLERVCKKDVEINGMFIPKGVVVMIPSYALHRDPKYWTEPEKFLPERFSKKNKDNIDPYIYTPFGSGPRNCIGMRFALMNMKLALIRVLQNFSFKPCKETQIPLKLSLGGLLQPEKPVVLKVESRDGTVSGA

Structure (SMILES)	EC50 [1] [nM]	inhibition [2] [%]	CCIC50 [3] [µM]	EC50 [4] [nM]	also measured
COc1ccc(CN2CCN(C[C@@H](O)[C@H](Cc3ccccc3)NC(=O)[C@@H](NC(=O)OCc3cnc(C(C)C)s3)C(C)C)[C@H](C(=O)NC(C)(C)C)C2)cc1OC	86	51	21	17	–
CC(C)c1nc(COC(=O)N[C@H](C(=O)N[C@@H](Cc2ccccc2)[C@H](O)CN2CCN(Cc3cccc4c3COC4)C[C@H]2C(=O)NC(C)(C)C)C(C)C)cs1	42	69	18	5	IC50 [5]: 12000 nM
Cc1nc(COC(=O)N[C@H](C(=O)N[C@@H](Cc2ccccc2)[C@H](O)CN2CCN(Cc3ccc(F)cc3)C[C@H]2C(=O)NC(C)(C)C)C(C)C)cs1	71	50	39	11	–
CC(C)[C@H](NC(=O)N(C)Cc1cncs1)C(=O)N[C@@H](Cc1ccccc1)[C@H](O)CN1CCN(Cc2cncs2)C[C@H]1C(=O)NC(C)(C)C	211	50	>100	259	–
CC(C)[C@@H](NC(=O)N(C)Cc1cncs1)C(=O)N[C@@H](Cc1ccccc1)[C@H](O)CN1CCN(Cc2cncs2)C[C@H]1C(=O)NC(C)(C)C	–	–	–	–	inhibition [6]: 50%; EC50 [7]: Not Active; EC50 [8]: Not Active; EC50 [9]: Not Active
CC(C)c1nc(COC(=O)N[C@H](C(=O)N[C@@H](Cc2ccccc2)[C@H](O)CN2CCN(Cc3ccc(F)cc3)C[C@H]2C(=O)NC(C)(C)C)C(C)C)cs1	174	64	15	21	–
Cc1nc(COC(=O)N[C@H](C(=O)N[C@@H](Cc2ccccc2)[C@H](O)CN2CCN(Cc3ccc4c(c3)OCO4)C[C@H]2C(=O)NC(C)(C)C)C(C)C)cs1	74	45	56	11	–
CC(C)c1nc(COC(=O)N[C@@H](C(=O)N[C@@H](Cc2ccccc2)[C@H](O)CN2CCN(Cc3cncs3)C[C@H]2C(=O)NC(C)(C)C)C(C)C)cs1	26000	–	18	6000	inhibition [10]: 50%
CC(C)c1nc(COC(=O)N[C@H](C(=O)N[C@@H](Cc2ccccc2)[C@H](O)CN2CCN(Cc3nc4ccccc4[nH]3)C[C@H]2C(=O)NC(C)(C)C)C(C)C)cs1	1060	65	18	46	–
CC(C)c1nc(COC(=O)N[C@H](C(=O)N[C@@H](Cc2ccccc2)[C@H](O)CN2CCN(Cc3ccccc3)C[C@H]2C(=O)NC(C)(C)C)C(C)C)cs1	80	61	45	22	–
CC(C)c1nc(COC(=O)N[C@H](C(=O)N[C@@H](Cc2ccccc2)[C@H](O)CN2CCN(Cc3ccc4c(c3)OCO4)C[C@H]2C(=O)NC(C)(C)C)C(C)C)cs1	40	60	13	7	EC50 [11]: 24 nM; EC50 [12]: 29 nM; EC50 [13]: 33 nM; EC50 [14]: 24 nM; IC50 [5]: 9600 nM; EC50 [15]: 10 nM; EC50 [16]: 27 nM
CC(C)c1nc(COC(=O)N[C@H](C(=O)N[C@@H](Cc2ccccc2)[C@H](O)CN2CCN(Cc3ccncc3)C[C@H]2C(=O)NC(C)(C)C)C(C)C)cs1	76	73	56	17	–
CC(C)[C@@H](NC(=O)N(C)Cc1cncs1)C(=O)N[C@@H](Cc1ccccc1)[C@H](O)CN1CCN(Cc2ccccc2)C[C@H]1C(=O)NC(C)(C)C	7000	–	56	3000	inhibition [17]: 50%
COc1ccc(CN2CCN(C[C@@H](O)[C@H](Cc3ccccc3)NC(=O)[C@@H](NC(=O)OCc3cnc(C)s3)C(C)C)[C@H](C(=O)NC(C)(C)C)C2)cc1OC	59	44	53	11	–
CC(C)[C@H](NC(=O)OCc1cncs1)C(=O)N[C@@H](Cc1ccccc1)[C@H](O)CN1CCN(Cc2cncs2)C[C@H]1C(=O)NC(C)(C)C	75	45	>100	57	–
CC(C)c1nc(COC(=O)N[C@H](C(=O)N[C@@H](Cc2ccccc2)[C@H](O)CN2CCN(Cc3cccc(O)c3)C[C@H]2C(=O)NC(C)(C)C)C(C)C)cs1	142	53	17	40	–
CCc1nc(COC(=O)N[C@H](C(=O)N[C@@H](Cc2ccccc2)[C@H](O)CN2CCN(Cc3ccc(OC)c(OC)c3)C[C@H]2C(=O)NC(C)(C)C)C(C)C)cs1	42	82	45	19	–
COc1ccc(CN2CCN(C[C@@H](O)[C@H](Cc3ccccc3)NC(=O)[C@@H](NC(=O)OCc3csc(C(C)C)n3)C(C)C)[C@H](C(=O)NC(C)(C)C)C2)cc1OC	46	62	18	17	–
CC(C)c1nc(COC(=O)N[C@H](C(=O)N[C@@H](Cc2ccccc2)[C@H](O)CN2CCN(Cc3cncs3)C[C@H]2C(=O)NC(C)(C)C)C(C)C)cs1	67	67	57	12	IC50 [5]: 15000 nM
CC(C)c1nc(COC(=O)N[C@H](C(=O)N[C@@H](Cc2ccccc2)[C@H](O)CN2CCN(Cc3ccc(O)cc3)C[C@H]2C(=O)NC(C)(C)C)C(C)C)cs1	226	54	19	47	–
CC(C)c1nc(COC(=O)N[C@H](C(=O)N[C@@H](Cc2ccccc2)[C@H](O)CN2CCN(Cc3cccnc3)C[C@H]2C(=O)NC(C)(C)C)C(C)C)cs1	67	69	59	12	IC50 [5]: 2300 nM
CC(C)c1nc(CN(C)C(=O)N[C@H](C(=O)N[C@@H](Cc2ccccc2)[C@H](O)CN2CCN(Cc3cncs3)C[C@H]2C(=O)NC(C)(C)C)C(C)C)cs1	84	60	>100	13	–
COc1cc(CN2CCN(C[C@@H](O)[C@H](Cc3ccccc3)NC(=O)[C@@H](NC(=O)N(C)Cc3csc(C(C)C)n3)C(C)C)[C@H](C(=O)NC(C)(C)C)C2)ccc1O	242	63	20	41	–
CCc1ncc(COC(=O)N[C@H](C(=O)N[C@@H](Cc2ccccc2)[C@H](O)CN2CCN(Cc3ccc(OC)c(OC)c3)C[C@H]2C(=O)NC(C)(C)C)C(C)C)s1	132	37	50	16	IC50 [5]: 35000 nM
COc1ccc(CN2CCN(C[C@@H](O)[C@H](Cc3ccccc3)NC(=O)[C@@H](NC(=O)OCc3csc(C)n3)C(C)C)[C@H](C(=O)NC(C)(C)C)C2)cc1OC	42	49	57	10	IC50 [5]: 120000 nM
CC(C)c1nc(CN(C)C(=O)N[C@H](C(=O)N[C@@H](Cc2ccccc2)C[C@H](O)[C@H](Cc2ccccc2)NC(=O)OCc2cncs2)C(C)C)cs1 [RITONAVIR]	810	–	56	70	EC50 [18]: 87 nM; EC50 [19]: 340 nM; EC50 [20]: 575 nM; EC50 [21]: 149 nM; EC50 [22]: 368 nM; EC50 [23]: 365 nM
CC(C)c1nc(CN(C)C(=O)N[C@H](C(=O)N[C@@H](Cc2ccccc2)[C@H](O)CN2CCN(Cc3ccccc3)C[C@H]2C(=O)NC(C)(C)C)C(C)C)cs1	306	66	56	48	–
CC(C)[C@H](NC(=O)OCc1cncs1)C(=O)N[C@@H](Cc1ccccc1)[C@H](O)CN1CCN(Cc2ccccc2)C[C@H]1C(=O)NC(C)(C)C	104	40	53	17	–

— ChEMBL document CHEMBL1131402, “Potent piperazine hydroxyethylamine HIV protease inhibitors containing novel P3 ligands” (Bioorg Med Chem Lett, 1998)
